pIC50: −log10 of the molar value. A value given as a limit tells only on which side of the number the result lay.

One assay has as its target T1, RORγ-LBD (Homo sapiens, UniProt P51449).
T1 construct: HIS-tagged RORγ-LBD was recombinantly expressed in SF9 cells; made in house; host or cells: SF9 cells (baculovirus); unpurified lysate
T1 sequence (P51449 269-508 limits assumed): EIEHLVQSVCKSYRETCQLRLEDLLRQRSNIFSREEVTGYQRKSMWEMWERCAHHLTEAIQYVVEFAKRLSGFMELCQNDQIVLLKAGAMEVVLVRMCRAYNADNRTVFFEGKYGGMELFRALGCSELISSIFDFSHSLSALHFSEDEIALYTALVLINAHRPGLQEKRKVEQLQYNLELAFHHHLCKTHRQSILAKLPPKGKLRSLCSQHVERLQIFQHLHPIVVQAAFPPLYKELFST
As to the kind of experiment: RORγ-Ligand Binding Domain TR-FRET Assay. The format is biochemical. The following applies: Table 8, indazoles. As to the method: HIS-tagged RORγ-LBD was recombinantly expressed in SF9 cells using a baculovirus expression system. The protein was not purified. Cells were lysed and the lysate was used as a source for RORγ-LBD for the assay. A 1:80 dilution of RORγ-LBD lysate in assay buffer (25 mM HEPES pH 7.0, 100 mM NaCl, 0.01% Tween, 0.1% BSA) was prepared and 5 μL was added to each well (RORγ-LBD final concentration ˜10 nM). Control wells received lysate from SF9 cells not expressing RORγ-LBD.
Compounds to be tested were diluted to 100× final test concentration in DMSO and further diluted to 4× final test concentration using assay buffer to provide the test compound mixture. An aliquot (5 μL) of the test compound mixture was added to each well.
A 4× stock of biotinylated-LXXLL peptide from SRC1-2 (Biotin-[…]) was prepared in assay buffer and a 5 μL aliquot added to each well (450 nM final concentration). A 4× solution of europium tagged anti-HIS antibody (2 nM final concentration) and APC conjugated streptavidin (60 nM final concentration) were prepared and a 5 μL aliquot added to each well.
The final assay mixture was incubated for 4 hours to overnight, and the fluorescence signal was measured on an Envision plate reader: (Excitation filter=340 nm; APC emission=665 nm; Europium emission=615 nm; dichroic mirror=D400/D630; delay time=100 μs, integration time=200 μs).
IC50 values for test compounds were calculated from the quotient of the fluorescence signal at 665 nm divided by the fluorescence signal at 615 nm using GraphPad Prism software.
Turning to `COC(=O)c1cccc(S(=O)(=O)n2ncc3ccc(NC(=O)c4c(F)cccc4Cl)cc32)c1` [Compound V-108], the pIC50 (commonly the negative decadic logarithm of the IC50, by convention in mol/L) was greater than 4.82.
`CC(=O)c1cccc(S(=O)(=O)n2ncc3ccc(NC(=O)c4c(F)cccc4C(F)(F)F)cc32)c1` [Compound V-12] showed a negative logarithm of the IC50 (pIC50) greater than 4.82.
Turning to `Cc1nc(C)c(S(=O)(=O)n2ncc3ccc(NC(=O)c4c(F)cccc4Cl)cc32)s1` [Compound V-89], the pIC50 was greater than 4.82.
For `O=C(Nc1ccc2cnn(S(=O)(=O)Cc3ccc(C(F)(F)F)cc3)c2c1)c1c(Cl)cccc1C(F)(F)F` [Compound V-38], the negative-log IC50 (pIC50) is greater than 4.82.
On the same count and under the same terms, the figure for `O=C(Nc1ccc2cnn(S(=O)(=O)c3ccc(Cl)s3)c2c1)c1c(F)cccc1Cl` [Compound V-96] is greater than 4.82; for `O=C(Nc1ccc2cnn(S(=O)(=O)c3cccc(OC(F)F)c3)c2c1)c1c(F)cccc1F` [Compound V-58] it is greater than 4.82.
On the same count and under the same terms, the result for `Cc1nn(C(F)F)cc1S(=O)(=O)n1ncc2ccc(NC(=O)Cc3ccc(F)cc3)cc21` [Compound V-22] reads greater than 4.82; that for `Cc1cc(F)ccc1S(=O)(=O)n1ncc2ccc(NC(=O)c3ccc(F)cc3Cl)cc21` [Compound V-77], greater than 4.82.
In turn, `COc1ccccc1S(=O)(=O)n1ncc2ccc(NC(=O)c3c(F)cccc3Cl)cc21` [Compound V-111] showed a pIC50 greater than 4.82.
The same measure, in the same setting: the result for `Cc1nn(C(F)F)cc1S(=O)(=O)n1ncc2ccc(NC(=O)c3c(F)cccc3F)cc21` [Compound V-13] reads greater than 4.82; that for `CC(C)(C)c1cccc(S(=O)(=O)n2ncc3ccc(NC(=O)c4c(F)cccc4Cl)cc32)c1` [Compound V-106], greater than 4.82; that for `Cc1cccc(S(=O)(=O)n2ncc3ccc(NC(=O)c4c(F)cccc4Cl)cc32)c1` [Compound V-124], greater than 4.82.
On the same count and under the same terms, the figure for `N#Cc1ccccc1S(=O)(=O)n1ncc2ccc(NC(=O)c3c(F)cccc3Cl)cc21` [Compound V-87] is greater than 4.82.
As for `Cc1cccc(S(=O)(=O)n2ncc3ccc(NC(=O)Cc4ccc(F)cc4)cc32)c1` [Compound V-25], the pIC50 is greater than 4.82.
On the same count and under the same terms, the figure for `O=C(Nc1ccc2cnn(S(=O)(=O)c3ccc(OC(F)(F)F)cc3)c2c1)c1c(F)cccc1Cl` [Compound V-153] is greater than 4.82; for `Cc1ccc(S(=O)(=O)n2ncc3ccc(NC(=O)c4c(F)cccc4Cl)cc32)c(F)c1` [Compound V-118] it is greater than 4.82.
Turning to `O=C(Nc1ccc2cnn(S(=O)(=O)c3ccsc3)c2c1)c1c(F)cccc1Cl` [Compound V-99], the pIC50 was greater than 4.82.
With `Cc1cc(F)ccc1S(=O)(=O)n1ncc2ccc(NC(=O)c3c(F)cccc3Cl)cc21` [Compound V-163], the pIC50 is greater than 4.82.
`Cc1cccc(S(=O)(=O)n2ncc3ccc(NC(=O)c4c(Cl)cccc4Cl)cc32)c1` [Compound V-70] showed a negative logarithm of the IC50 (pIC50) greater than 4.82.
Same read-out and setting: the figure for `O=C(Nc1ccc2cnn(S(=O)(=O)c3cccc(C(F)(F)F)c3)c2c1)c1c(F)cccc1F` [Compound V-64] is greater than 4.82.
Compound `COc1cccc(S(=O)(=O)n2ncc3ccc(NC(=O)Cc4cnc(C)s4)cc32)c1` [Compound V-7] gave a pIC50 greater than 4.82.
Same read-out and setting: the result for `Cc1cccc(S(=O)(=O)n2nc(Br)c3ccc(NC(=O)c4c(F)cccc4Cl)cc32)c1` [Compound V-52] reads greater than 4.82; that for `Cc1ccc(S(=O)(=O)n2ncc3ccc(NC(=O)c4c(F)cccc4Cl)cc32)cc1Cl` [Compound V-127], greater than 4.82; that for `O=C(Nc1ccc2cnn(S(=O)(=O)c3cccc(OC(F)(F)F)c3)c2c1)c1c(F)cccc1F` [Compound V-63], greater than 4.82.
`Cc1ccc(S(=O)(=O)n2ncc3ccc(NC(=O)c4c(F)cccc4Cl)cc32)cc1F` [Compound V-125]: the negative logarithm of the IC50 (pIC50) was greater than 4.82.
The compound `CC(C)c1ccc(S(=O)(=O)n2ncc3ccc(NC(=O)c4c(F)cccc4Cl)cc32)cc1` [Compound V-120] showed a negative-log IC50 (pIC50) greater than 4.82.
As to `O=C(Nc1ccc2cnn(S(=O)(=O)c3ccc(Cl)c(Cl)c3)c2c1)c1c(F)cccc1Cl` [Compound V-154], the pIC50 is greater than 4.82.
As to `O=C(Nc1ccc2cnn(S(=O)(=O)c3cccc(Cl)c3)c2c1)c1c(F)cccc1C(F)(F)F` [Compound V-48], the pIC50 is greater than 4.82.
On the same count and under the same terms, the figure for `Cc1c(F)cccc1S(=O)(=O)n1ncc2ccc(NC(=O)c3c(F)cccc3Cl)cc21` [Compound V-102] is greater than 4.82; for `CCc1ccc(S(=O)(=O)n2ncc3ccc(NC(=O)c4c(F)cccc4Cl)cc32)cc1` [Compound V-116] it is greater than 4.82; for `O=C(Nc1ccc2cnn(S(=O)(=O)Cc3ccc(F)cc3)c2c1)c1c(F)cccc1Cl` [Compound V-160] it is greater than 4.82.
On to `Cc1cccc(S(=O)(=O)n2nc(-c3ccc(C(=O)O)cc3)c3ccc(NC(=O)c4c(F)cccc4Cl)cc32)c1` [Compound V-10], for which the pIC50 was greater than 4.82.
The compound `CC(=O)c1cccc(S(=O)(=O)n2ncc3ccc(NC(=O)Cc4cc(F)cc(F)c4)cc32)c1` [Compound V-15] showed a pIC50 greater than 4.82.
Still for that read-out and setting: the figure for `CC(C)(C)c1cccc(S(=O)(=O)n2ncc3ccc(NC(=O)Cc4ccc(F)cc4)cc32)c1` [Compound V-23] is greater than 4.82.
Still for that read-out and setting: the result for `O=C(Nc1ccc2cnn(S(=O)(=O)c3cccc(OC(F)(F)F)c3)c2c1)c1c(Cl)cccc1C(F)(F)F` [Compound V-41] reads greater than 4.82; that for `O=C(Cc1ccc(Cl)cc1)Nc1ccc2cnn(S(=O)(=O)c3cccc(OC(F)F)c3)c2c1` [Compound V-29], greater than 4.82.
Same read-out and setting: the figure for `O=C(Nc1ccc2cnn(S(=O)(=O)Cc3ccc(Cl)cc3)c2c1)c1c(F)cccc1Cl` [Compound V-92] is greater than 4.82.
`O=C(Nc1ccc2cnn(S(=O)(=O)c3ccc(F)c(F)c3)c2c1)c1c(F)cccc1Cl` [Compound V-170] showed a pIC50 greater than 4.82.

Still in this assay, the particulars now being: benzoxazines, Table 9.
In turn, `N#Cc1cccc(S(=O)(=O)N2C[C@@H](CO)Oc3ccc(NC(=O)c4c(F)cccc4C(F)(F)F)cc32)c1` [VI-57] had a pIC50 greater than 4.82.
Same read-out and setting: the result for `C[C@H]1CN(S(=O)(=O)c2ccc(F)cc2)c2cc(NC(=O)C3(c4ccc(Cl)cc4)CCCC3)ccc2O1` [VI-132] reads greater than 4.82.
On the same count and under the same terms, the result for `C[C@@H](O)[C@H]1CN(S(=O)(=O)c2ccc(F)cc2)c2cc(NC(=O)c3c(F)cccc3Cl)ccc2O1` [VI-17] reads greater than 4.82; that for `O=C(Cc1ccc(F)cc1)Nc1ccc2c(c1)N(S(=O)(=O)c1ccc(Cl)cc1)C[C@@H](CO)O2` [VI-53], greater than 4.82.
`O=C(Cc1ccc(Cl)cc1)Nc1ccc2c(c1)N(S(=O)(=O)c1ccc(Cl)cc1)C[C@H](CO)O2` [VI-66] showed a pIC50 greater than 4.82.
In turn, `C[C@H](C(=O)Nc1ccc2c(c1)N(S(=O)(=O)c1ccc(F)cc1)C[C@H](C)O2)c1ccccc1` [VI-133] gave a pIC50 greater than 4.82.
For the compound `N#Cc1cccc(S(=O)(=O)N2C[C@H](CO)Oc3ccc(NC(=O)Cc4ccc(F)cc4)cc32)c1` [VI-64], the negative-log IC50 (pIC50) was greater than 4.82.
Regarding `C[C@H]1CN(S(=O)(=O)c2ccc(F)cc2)c2cc(NC(=O)[C@H](C)c3ccccc3)ccc2O1` [VI-134], the pIC50 was greater than 4.82.
On the same count and under the same terms, the figure for `CNCC1CN(S(=O)(=O)c2ccc(F)cc2)c2cc(NC(=O)c3c(F)cccc3Cl)ccc2O1` (stereo not shown) [Compound 14] is greater than 4.82.
As to `N#Cc1cccc(S(=O)(=O)N2C[C@@H](CO)Oc3ccc(NC(=O)Cc4ccc(Cl)cc4)cc32)c1` [VI-56], the pIC50 was greater than 4.82.
In the case of `CCCNCC1CN(S(=O)(=O)c2ccc(F)cc2)c2cc(NC(=O)c3c(F)cccc3Cl)ccc2O1` (stereo not shown) [VI-33], the negative-log IC50 (pIC50) is greater than 4.82.

Values taken from US9512111B2, “N-sulfonylated tetrahydroquinolines and related bicyclic compounds for inhibition of RORγ activity and the treatment of disease” (Lycera Corporation, priority 2010, dated 2016).
